Read-outs that look alike come from different tables or passages of the source.
Tests used:
human orexin-1 receptor = human orexin-1 receptor (Homo sapiens (Human), UniProt O43613); assay: In vitro assay: intracellular calcium measurements (FLIPR), antagonistic activity; type: cell-based; conditions: CHO cells, 3 nM orexin-A, marked values are geometric means of n = 2-6, read-out: IC50 OX1
human orexin-2 receptor = human orexin-2 receptor (Homo sapiens (Human), UniProt O43614); assay: as above; type: cell-based; conditions: CHO cells, 3 nM orexin-A, marked values are geometric means of n = 2-6, read-out: IC50 OX2
human orexin-2 receptor, sequence (O43614 whole entry): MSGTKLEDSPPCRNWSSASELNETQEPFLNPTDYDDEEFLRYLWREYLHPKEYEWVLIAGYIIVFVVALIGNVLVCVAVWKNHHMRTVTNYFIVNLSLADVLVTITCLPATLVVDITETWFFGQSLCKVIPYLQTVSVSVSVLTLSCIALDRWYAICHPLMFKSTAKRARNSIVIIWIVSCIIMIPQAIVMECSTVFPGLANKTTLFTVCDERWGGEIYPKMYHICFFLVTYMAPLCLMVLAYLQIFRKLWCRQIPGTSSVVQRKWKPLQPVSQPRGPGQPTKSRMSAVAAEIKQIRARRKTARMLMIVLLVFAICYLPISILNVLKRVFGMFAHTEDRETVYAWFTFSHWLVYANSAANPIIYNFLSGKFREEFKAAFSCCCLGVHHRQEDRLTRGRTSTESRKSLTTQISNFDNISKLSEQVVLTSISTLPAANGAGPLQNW

[1] = compound incubation time of 10 min

human orexin-1 receptor, sequence (O43613 whole entry): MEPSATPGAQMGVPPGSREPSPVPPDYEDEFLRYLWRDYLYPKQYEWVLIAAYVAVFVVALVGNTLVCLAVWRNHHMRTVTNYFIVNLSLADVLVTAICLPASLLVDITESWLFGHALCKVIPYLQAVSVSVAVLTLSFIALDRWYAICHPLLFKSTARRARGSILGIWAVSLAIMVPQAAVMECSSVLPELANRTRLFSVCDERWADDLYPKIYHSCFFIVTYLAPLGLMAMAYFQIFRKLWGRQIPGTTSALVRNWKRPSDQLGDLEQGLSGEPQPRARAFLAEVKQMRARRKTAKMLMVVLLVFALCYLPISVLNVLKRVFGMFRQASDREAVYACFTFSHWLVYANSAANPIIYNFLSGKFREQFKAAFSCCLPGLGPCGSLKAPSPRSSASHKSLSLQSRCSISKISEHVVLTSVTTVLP

Row | Structure (SMILES) | IC50 (human orexin-1 receptor; [1]) [nM] | IC50 (human orexin-2 receptor; [1]) [nM] | IC50 (human orexin-1 receptor; compound incubation 120 min) [nM] | IC50 (human orexin-2 receptor; compound incubation 120 min) [nM]
1 | CCC(c1ccc(OC(F)(F)F)cc1)N1C(=O)CCCC1c1c(OC)cccc1OC (stereo not drawn) [Example 186, 6-(2,6-dimethoxyphenyl)-1-(1-(4-(trifluoromethoxy)phenyl)propyl)piperidin-2-one] | 2770 | 5650 | – | –
2 | COc1cccc(OC)c1C1CCCCC(=O)N1Cc1ccc2c(c1)c1ccccc1n2C (stereo not drawn) [Example 86, 7-(2,6-dimethoxyphenyl)-1-((9-methyl-9H-carbazol-3-yl)methyl)azepan-2-one] | – | – | 45 | 71
3 | COc1cccc(OC)c1C1CCCC(=O)N1Cc1ccnc(-c2ccccc2)c1 (stereo not drawn) [Example 12, 6-(2,6-dimethoxyphenyl)-1-((2-phenylpyridin-4-yl)methyl)piperidin-2-one] | – | – | 25 | 34
4 | COc1cccc(OC)c1C1CCCC(=O)N1Cc1ccc(-n2cccc2)cc1 (stereo not drawn) [Example 169, 1-(4-(1H-pyrrol-1-yl)benzyl)-6-(2,6-dimethoxyphenyl)piperidin-2-one] | 1590 | 190 | – | –
5 | COc1cccc(OC)c1C1CC(C)C(=O)N1Cc1cccc(-c2cccnc2)c1 (stereo not drawn) [Example 141, 5-(2,6-dimethoxyphenyl)-3-methyl-1-(3-(pyridin-3-yl)benzyl)pyrrolidin-2-one] | – | – | 35 | 28
6 | COc1cc(CN2C(=O)C(C)CC2c2c(OC)cccc2OC)ccc1OC(F)F (stereo not drawn) [Example 425, 1-(4-(difluoromethoxy)-3-methoxybenzyl)-5-(2,6-dimethoxyphenyl)-3-methylpyrrolidin-2-one] | – | – | 311 | 235
7 | COc1cncc(OC)c1C1CCCCC(=O)N1Cc1ccc2c(c1)c1ccccc1n2C (stereo not drawn) [Example 276, 7-(3,5-dimethoxypyridin-4-yl)-1-((9-methyl-9H-carbazol-3-yl)methyl)azepan-2-one] | – | – | 347 | 222
8 | COc1cccc(OC)c1C1CC(F)(F)C(=O)N1Cc1cccc(-c2ccccc2)c1 (stereo not drawn) [Example 336, 1-([1,1′-biphenyl]-3-ylmethyl)-5-(2,6-dimethoxyphenyl)-3,3-difluoropyrrolidin-2-one] | – | – | 16 | 81
9 | COc1ccnc(OC)c1C1CC(C)C(=O)N1Cc1cccc(-c2ccccc2)c1 (stereo not drawn) [Example 354, 1-([1,1′-biphenyl]-3-ylmethyl)-5-(2,4-dimethoxypyridin-3-yl)-3-methylpyrrolidin-2-one] | – | – | 56 | 113
10 | COc1ccc2c(c1C1CCCC(=O)N1Cc1ccc(OC(F)(F)F)cc1)OCO2 (stereo not drawn) [Example 449, 6-(5-methoxybenzo[d][1,3]dioxol-4-yl)-1-(4-(trifluoromethoxy)benzyl)piperidin-2-one] | – | – | 351 | 23
11 | COc1cccc(OC)c1C1CCCC(=O)N1Cc1cc2ccccc2s1 (stereo not drawn) [Example 181, 1-(benzo[b]thiophen-2-ylmethyl)-6-(2,6-dimethoxyphenyl)piperidin-2-one] | 805 | 252 | – | –
12 | CCOc1cccc(F)c1C1CC(C)C(=O)N1Cc1cnc2ccccc2c1 (stereo not drawn) [Example 378, 5-(2-ethoxy-6-fluorophenyl)-3-methyl-1-(quinolin-3-ylmethyl)pyrrolidin-2-one] | – | – | 1640 | 690
13 | COc1cccc(OC)c1C1CCCC(=O)N1Cc1cnc2ccccc2c1 (stereo not drawn) [Example 1, 6-(2,6-dimethoxyphenyl)-1-(quinolin-3-ylmethyl)piperidin-2-one] | 643 | 209 | – | –
14 | COc1cccc(OC)c1C1CCC(=O)N1Cc1ccc(-c2ccccc2)cc1 (stereo not drawn) [Example 114, 1-([1,1′-biphenyl]-4-ylmethyl)-5-(2,6-dimethoxyphenyl)pyrrolidin-2-one] | – | – | 149 | 184
15 | COc1cccc(OC)c1[C@@H]1C[C@H](OC)C(=O)N1Cc1ccc(OC(F)(F)F)cc1 (racemic) [Example 254, rac-(3S*,5S*)-5-(2,6-dimethoxyphenyl)-3-methoxy-1-(4-(trifluoromethoxy)benzyl)pyrrolidin-2-one] | 191 | 168 | – | –

Reference: patent publication US9242970B2 (ACTELION PHARMACEUTICALS LTD., priority 2010, dated 2016)
